Here are results for 16 compounds from patent publication US6916801B2, “7-Alkylidene-3-substituted-3-cephem-4-carboxylates as β-lactamase inhibitors” (Alamx, LLC, priority 2001, dated 2005).

Like-named read-outs stand apart in the source and are kept apart here.

Assay [1] concerns the target Class C β-lactamase of Enterobacter cloacae P-99, a cephalosporinase (Enterobacter cloacae, UniProt P05364). In words: biochemical. The procedure:
(§1) Representative compounds of formula (I) were evaluated as inhibitors of the Class C β-lactamase of Enterobacter cloacae P-99, a cephalosporinase, and TEM-1, a Class A penicillinase, by relative IC50 analysis. The IC50 value represents the concentration of inhibitor required to effect a 50% loss of activity of free enzyme. The IC50 value of each compound was determined as follows. Following a 10 minute incubation of a dilute solution of enzyme (2.56 nM) and inhibitor (<0.64 mM), a […] of this incubation mixture was then further diluted into 1 mL nitrocefin solution, and the rate of hydrolysis was measured during a 1 minute period by monitoring the absorbance of nitrocefin as a function of time.

Assay [2] addresses TEM-1, a Class A penicillinase (Escherichia coli, UniProt P62593). In words: beta-lactamase inhibition, relative IC50 analysis by nitrocefin hydrolysis (class A enzyme). The class given is biochemical. The settings on record: class A β-lactamase; 10 minute incubation of enzyme (2.56 nM) and inhibitor; nitrocefin substrate. As for the experimental part: as §1
Setting [3] is: class C β-lactamase, 10 minute incubation of enzyme (2.56 nM) and inhibitor, nitrocefin substrate, read-out: P99 (IC50, μm).

Sequence of Class C β-lactamase of Enterobacter cloacae P-99, a cephalosporinase (P05364 21-381): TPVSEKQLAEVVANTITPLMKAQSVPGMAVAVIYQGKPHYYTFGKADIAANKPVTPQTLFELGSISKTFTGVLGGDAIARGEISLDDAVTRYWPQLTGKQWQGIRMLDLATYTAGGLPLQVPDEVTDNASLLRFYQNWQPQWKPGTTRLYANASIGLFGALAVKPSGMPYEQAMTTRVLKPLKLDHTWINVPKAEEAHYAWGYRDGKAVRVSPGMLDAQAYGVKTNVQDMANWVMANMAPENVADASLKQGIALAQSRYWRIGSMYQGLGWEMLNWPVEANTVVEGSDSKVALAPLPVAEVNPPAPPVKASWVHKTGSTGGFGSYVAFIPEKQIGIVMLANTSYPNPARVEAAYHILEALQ
Sequence of TEM-1, a Class A penicillinase (P62593 24-286 limits assumed): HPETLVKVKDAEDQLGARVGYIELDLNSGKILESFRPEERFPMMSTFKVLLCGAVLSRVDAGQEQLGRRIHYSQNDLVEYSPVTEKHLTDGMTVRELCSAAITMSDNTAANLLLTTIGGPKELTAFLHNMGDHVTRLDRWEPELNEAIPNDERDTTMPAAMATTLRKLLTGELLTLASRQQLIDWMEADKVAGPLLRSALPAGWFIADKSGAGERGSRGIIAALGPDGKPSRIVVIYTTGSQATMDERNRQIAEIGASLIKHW

In the case of `O=C(O)C1=C(S(=O)(=O)c2ccccc2)CS(=O)(=O)C2C(=Cc3ccccn3)C(=O)N12` (centres unmarked) [Compound 11b, Sodium 1,1-dioxo-3-phenylsulfonyl-7-(2′-pyridylmethylidine)-3-cephem-4-carboxylate], the IC50 in assay [1] was 174 nM; in assay [2], 9.4 nM.

Turning to `CSC1=C(C(=O)O)N2C(=O)C(=Cc3ccccn3)C2S(=O)(=O)C1` (centres unmarked) [Compound 9a, Sodium 1,1-dioxo-3-methylsulfanyl-7-(2′-pyridylmethylidine)-3-cephem-4-carboxylate], the IC50 in assay [1] worked out at 59 nM; in assay [2], 1060 nM.

As to `O=C(C=CC1=C(C(=O)O)N2C(=O)C(=Cc3ccccn3)C2S(=O)(=O)C1)NO` (centres unmarked) [Compound 18b, Sodium 3-(N-hydroxy-2′-carbamoylvinyl)-1,1-dioxo-7-(2″-pyridylmethylidine)-3-cephem-4-carboxylate], the figures for the IC50 in assay [1] and in assay [2] were 128 nM and 7690 nM, respectively.

`O=C(C=CC1=C(C(=O)O)N2C(=O)C(=Cc3ccccn3)C2S(=O)(=O)C1)NC1CC1` (centres unmarked) [Compound 18a]: the IC50 in assay [1] (setting [3]) came out at 824 nM; in assay [2], 240 nM.

`O=C(O)C1=C(Cl)CS(=O)(=O)C2C(=Cc3ccccn3)C(=O)N12` (centres unmarked) [Compound 7a, Sodium 3-chloro-1,1-dioxo-7-(2′-pyridylmethylidine)-3-cephem-4-carboxylate]: the IC50 in assay [1] (setting [3]) amounted to 3 nM; in assay [2] it was 1820 nM.

For the compound `NNC(=O)C=CC1=C(C(=O)O)N2C(=O)C(=Cc3ccccn3)C2S(=O)(=O)C1` (centres unmarked) [Compound 21a], the IC50 in assay [1] (setting [3]) is 1100 nM; in assay [2] it was 390 nM.

`O=C(O)C1=C(c2cccs2)CS(=O)(=O)C2C(=Cc3ccccn3)C(=O)N12` (centres unmarked) [Compound 9c, Sodium 1,1-dioxo-7-(2′-pyridylmethylidine)-3-(thiophen-2′-yl)-3-cephem-4-carboxylate]: the IC50 in assay [1] is 43 nM; in assay [2] it was 3540 nM.

For the compound `O=C(O)C1=C(Sc2ccccc2)CS(=O)(=O)C2C(=Cc3ccccn3)C(=O)N12` (centres unmarked) [Compound 9b, Sodium 1,1-dioxo-3-phenylsulfanyl-7-(2′-pyridylmethylidine)-3-cephem-4-carboxylate], the IC50 in assay [1] (setting [3]) stood at 21.7 nM; in assay [2] it was 12 nM.

`O=C(O)C1=C(F)CS(=O)(=O)C2C(=Cc3ccccn3)C(=O)N12` (centres unmarked) [Compound 14a, Sodium 1,1-dioxo-3-fluoro-7-(2′-pyridylmethylidine)-3-cephem-4-carboxylate]: the IC50 came to 11 nM in assay [1] (setting [3]) and 1840 nM in assay [2].

For the compound `CS(=O)(=O)C1=C(C(=O)O)N2C(=O)C(=Cc3ccccn3)C2S(=O)(=O)C1` (centres unmarked) [Compound 11a, Sodium 1,1-dioxo-3-methylsulfonyl-7-(2′-pyridylmethylidine)-3-cephem-4-carboxylate], the IC50 in assay [1] was 90.7 nM; in assay [2] it was 7.6 nM.

Regarding `CN1CCN(C(=O)C=CC2=C(C(=O)O)N3C(=O)C(=Cc4ccccn4)C3S(=O)(=O)C2)CC1` (centres unmarked) [Compound 21c, Sodium 3-[3 ′-(4″-methylpiperazin-1″-yl)-3′-oxopropenyl]-1,1-dioxo-7-(2′″-puridylmethylidine)-3-cephem-4-carboxylate], the IC50 is 6340 nM in assay [1] and 53 nM in assay [2].

For the compound `O=C(O)C1=C(c2ccccc2)CS(=O)(=O)C2C(=Cc3ccccn3)C(=O)N12` (centres unmarked) [Compound 9d, Sodium 1,1-dioxo-3-phenyl-7-(2′-pyridylmethylidine)-3-cephem-4-carboxylate], the IC50 in assay [1] (setting [3]) came to 38 nM; in assay [2], 9140 nM.

`O=C(O)C1=CCS(=O)(=O)C2C(=Cc3ccccn3)C(=O)N12` (centres unmarked) [Compound 14b, Sodium 1,1-dioxo-7-(2 ′-pyridylmethylidine)-3-cephem-4-carboxylate]: the IC50 stood at 116 nM in assay [1] and 18500 nM in assay [2].

In the case of `O=C(O)C1=C(I)CS(=O)(=O)C2C(=Cc3ccccn3)C(=O)N12` (centres unmarked) [Compound 7c, Sodium 1,1-dioxo-3-iodo-7-(2′-pyridylmethylidine)-3-cephem-4-carboxylate], the results for the IC50 in assay [1] and in assay [2] were 4.7 nM and 1280 nM, respectively.

On to `O=C(O)C1=C(Br)CS(=O)(=O)C2C(=Cc3ccccn3)C(=O)N12` (centres unmarked) [Compound 7b, Sodium 3-bromo-1,1-dioxo-7-(2′-pyridylmethylidine)-3-cephem-4-carboxylate], for which the IC50 in assay [1] stood at 2.9 nM; in assay [2] it was 791 nM.

In the case of `NCCCNC(=O)C=CC1=C(C(=O)O)N2C(=O)C(=Cc3ccccn3)C2S(=O)(=O)C1` (centres unmarked) [Compound 21b, Sodium 3-{[N-(3″-aminopropyl)-2′-carbamoyl]vinyl)}-1,1-dioxo-7-(2′″-pyridylmethylidine-3-cephem-4-carboxylate], the figures for the IC50 in assay [1] (setting [3]) and in assay [2] were 4200 nM and 1590 nM, respectively.
